assay: Human HepG2 cell viability assay in 384 well format; assay type: toxicity, cell-based; parameters: dose 125 nL, time 70.5 hour; cytotoxicity at 70.5 h: concentration not given beside the values; details: HepG2 cells, read-out: Inhibition

Structure (SMILES) | cytotoxicity at 70.5 h [%]
OCC1CCCN1c1cc(NCCNc2ccccn2)ncn1 (centres undefined) | 0.758
Cc1cn(-c2ccccc2)nc1NS(=O)(=O)c1cc(C(=O)O)cs1 | 14.9
Cc1ccc(C(=O)O)cc1S(=O)(=O)Nc1nn(-c2ccccc2)cc1C | -0.199
CC1CN(C)c2ccccc2CN1C(=O)c1ccc[nH]1 (centres undefined) | 0.885
OCC1CCCN1c1cc(NCCc2c[nH]c3ccccc23)ncn1 (centres undefined) | 1.16
CC(C)c1nc(CN(C)C2CCN(CC(F)(F)F)C2)no1 (centres undefined) | 1.98
CS(=O)(=O)c1ccc(CNCC2CCN(CCO)CC2)cc1 | 18.2
CC1CN(C)c2ccccc2CN1C(=O)c1ccncc1 (centres undefined) | 0.805
COc1ccc(C2CCCN2C(=O)CCNc2ncccn2)cc1 (centres undefined) | -5.82
Cn1nnc2cc(C(=O)N3CCCC3Cc3ccccc3)ccc21 (centres undefined) | -1.35
Cc1cccc(CCC(=O)N2CCOCC2c2c(C)n[nH]c2C)c1 (centres undefined) | 17.3
CCN1CC(C(=O)NCc2ccnc(-n3ccnc3C)c2)CC1=O (centres undefined) | -1.78
CCn1ccnc1CN1CCN(Cc2ccccn2)CC1C (centres undefined) | 9.97
CNc1cc(N2CCCC2CNCc2ccccn2)ncn1 (centres undefined) | 14.8
NC(=O)c1cc(NC(=O)N2CCCCCC2)ccc1F | 35.1
CCN(CC)C(CNS(=O)(=O)c1ccc(C(=O)NC)cc1)c1ccco1 (centres undefined) | -8.07
Cc1cc(C)n(CC2CN(Cc3cccc(C(N)=O)c3)CCO2)n1 (centres undefined) | 6.91
O=C(NCCCOCC1CC1)Nc1cccnc1N1CCOCC1 | -5.01
Cc1nn(CC(=O)N2CCCCC2Cn2cccn2)c(C)c1Cl (centres undefined) | -0.411
CC(Oc1ccccc1C(F)(F)F)C(=O)NCC(N)=O (centres undefined) | -1.2
Cc1cccc(N2CCN(CCCNC(=O)c3nccn3C)CC2)c1 | -3.1
Cc1nc(C)n(CC2CN(Cc3cccc(C(N)=O)c3)CCO2)n1 (centres undefined) | -4.7

Structure (SMILES) | cytotoxicity at 70.5 h [%]
COc1c(C2CCCN2C(=O)c2cc(Cl)c[nH]2)c(C)nn1C (centres undefined) | -0.121
NC(=O)c1ccc(NC(=O)CCN2CCCC(N3CCCC3)C2)cc1 (centres undefined) | 12.4
Cc1cc(NC(=O)N2CCN(c3nc(C)c(C)s3)CC2)no1 | 21.7
CC(=O)N1CCCC1c1nnc2n1CCCCC2 (centres undefined) | 2.96
Cn1ccnc1CNC(=O)N1CCCC(Cc2nccn2C)C1 (centres undefined) | 2.69
Cc1nn(C)c(C)c1CCC(=O)N1CCCC1Cn1cccn1 (centres undefined) | -2.38
Cc1cc(C)n(C2CCCN(C(=O)c3ccc(F)cc3F)C2)n1 (centres undefined) | -0.896
Cc1nc(C)n(C2CCCN(C(=O)Cc3cccnc3)C2)n1 (centres undefined) | 3.66
Cc1nn(C)c(C)c1C1CCCN1C(=O)c1ccc(Cl)o1 (centres undefined) | 3.22
O=C(Nc1ccccc1)N1C[C@H]2C[C@H](C(=O)N3CCCC3)[C@@H](C1)O2 | 15.5
CC1CC2(CCN(C(=O)c3c[nH]cn3)CC2)c2ccccc21 (centres undefined) | -8.21
O=c1cc(CN2CCCC2)nc2n1CCCN(S(=O)(=O)C1CC1)C2 | -1.37
Cc1cccc(N2CCOCC3(C2)CN(c2cccnc2)C(=O)CO3)n1 (centres undefined) | -4.82
CCc1ccc(NC(=O)N2C[C@H]3C[C@H](C(=O)NC4CCC4)[C@@H](C2)O3)cc1 | 8.99
O=C(C1CCOC1)N1CC2(CCN(c3ccccc3)C2)C1 (centres undefined) | -0.441
CCS(=O)(=O)N1CCCn2c(nc(CN3CCCC3)cc2=O)C1 | -7.43
O=C(NCc1cncc2c1CCN(CC1CCOC1)C2)c1ccco1 (centres undefined) | 19.6
Cc1ccc(CN2CCc3c(COCC4CC4)nn(C)c3C2)s1 | 21.5
COc1ncccc1CN1C[C@H]2CCN(c3ncccn3)C[C@H]2C1 | 1.43
Cc1cccc(N2CCOCC3(C2)CN(c2ccccc2)C(=O)CO3)n1 (centres undefined) | -4.51
c1coc(CN2CCO[C@H]3[C@H](OCC4CCCC4)CC[C@@H]32)c1 | 11.8
Cn1cc(CN2CCC[C@]3(C[C@@H](Oc4ccccn4)CO3)C2)cn1 | -6.69

— ChEMBL document CHEMBL3507680, “University of Dundee, Gates Library screen for HepG2 cell viability”
